This note sets out measurements from patent US20240398785A1, “SMALL MOLECULE DRUGS FOR THE INDUCTION OF TRAINED IMMUNITY” (THE UNIVERSITY OF CHICAGO, priority 2023, published 2024).

Structures can show the parent of a compound that is named as a salt. Where two headings read alike, the source gives them in different places.

Experiment [1] has as its system bone marrow-derived macrophages (BMDMs). The experiment is described as follows: High-throughput trained immunity screening (TNF-α by HEK-Blue Quanti-Blue assay). The following applies: Mus musculus, BMDM, read-out: Fold Change (TNF-α production increase over untrained control).
Description: High-throughput trained immunity screening: Mature BMDMs were plated at 25,000 cells per well in 45 μL media in 384-well flat-bottomed plates using the Thermo Multidrop Combi liquid handler. Cells were rested overnight at 37° C. and 5% CO2. The following day, training compounds from the Microsource Spectrum Library were added at a volume of 45 nL using the PerkinElmer Janus G3 with Pintools for a final concentration of 1 μM. On day 2, supernatant was removed using the Janus, cells were washed with warm PBS using the Multidrop, and fresh media was added to the cells using the Multidrop. On day 5, cell density was quantified using the IncuCyte imager and software, then cells received media containing 25 ng/mL IFN-7 (BD Biosciences) for 24 hours. On day 6, cells were stimulated with 25 ng/mL Pam3-CSK4 (Invivogen). Supernatant was collected on day 6 and on day 7 following 24 hours of TLR stimulation, and it was stored at −80° C.
To measure TNF-α concentration in the supernatant, a high-throughput Quanti-Blue assay was used. HEK-Blue TNF-α cells (Invivogen) were plated at a density of 25,000 cells per well in 45 μL media (DMEM, 10% HIFBS). 5 μL of supernatant is added to each well using the Janus liquid handler, then the plates were incubated for 24 hours at 37° C. and 5% CO2. The following day, 20 μL of concentrated Quanti-Blue reagent was added to each well using the Combi liquid handler, and the plate was shaken for one minute. Then, the plate incubated at room temperature for 15 minutes before absorbance was measured at 628 nm using the BioTek Synergy NEO 2. All data is represented as a fold change relative to the average of the Pam3 only untrained control (n=20) on each plate.
An additional plate was seeded alongside the screen plates for a manual training assay and ELISA measurement of cytokine secretion to confirm that the BMDMs were behaving as expected. […] On Day 5, each well was imaged using an IncuCyte to quantify cell viability relative to the untrained controls.^20 Furthermore, the cells were checked to see if they maintained a resting phenotype before TLR stimulation by collecting and freezing the supernatant on Day 6 to measure TNF-α concentration after the assay was complete. Trained immunity effects are distinct from innate immune priming, so we checked that the cells maintained a resting phenotype before TLR stimulation by collecting and freezing the supernatant from each of the three screening replicates on Day 6 to measure TNF-α concentration after the assay was complete (FIG. 1F).
For each replicate of the screen, a modified version of the standard 7-day training assay was used.^18 TNF-α concentration was measured using a high throughput Quanti-Blue assay in HEK-Blue TNF-α cells. Concentration is proportional to absorbance measured at 628 nm within the range of the assay. 2,000 small molecules from the MicroSource Spectrum Library were screened.
The test system is the same in experiment [2]. The experiment is described as follows: Chemical inhibition of training (MTA, EGCG, 2DG pre-treatment). The class given is cell-based, mouse. As to the method:
FIG. 3D is a graph of a glycolysis inhibition assay using 1 mM 2DG and measuring TNF-α concentration following Pam3 challenge in cells trained with 10 μM hydrocortisone after 1 h of pre-treatment with PBS or 2DG (n=15). FIGS. 3E-3I are graphs of TNF-α concentration following Pam3 challenge in cells trained with M 5-Fluoroindole-2-Carboxylic Acid (FIG. 3E), Myricetin (FIG. 3F), Nerol (FIG. 3G), Hydroquinone (FIG. 3H), or Fenoterol hydrobromide (FIG. 3I) after pre-treatment with PBS or glycolysis inhibitor, 2DG (n=15). […] All values are expressed as mean±SEM, and statistics were conducted using 2-way ANOVA with Sidak's multiple comparisons test (significance compared with untrained group). *P<0.05, **P<0.01, ***P<0.001, ****P<0.0001, n.s., not significant.
For inhibition studies, BMDMs received inhibitors at specified concentrations 1 h prior to stimulation with training molecules, and inhibitors were present for the entire 24 h training period. […] To test metabolic pathway involvement, cells were pretreated with 1 mM 2′ deoxy-D-glucose.
Upregulation of glycolysis is commonly implicated as one of the underlying mechanisms in the induction of trained immunity.

For a further experiment, the system named is peritoneal cells. In words: Peritoneal lavage spectral flow cytometry 2 h after LPS challenge. The format is in vivo, mouse. As to the method:
FIG. 4A is a schematic drawing showing a method of screening small molecule inducers of trained immunity in vivo. Mice were injected intraperitoneally (i.p.) with small molecules or vehicle control on days 0, 2, and 4. Mice were challenged with 1 μg lipopolysaccharide (LPS) on day 11 and then bled 1 hour (h) later. […] All values are expressed as mean±SEM, and statistics were conducted using 1-way ANOVA or 2-way ANOVA with multiple comparisons (significance compared with untrained group). *P<0.05, **P<0.01, ***P<0.001, ****P<0.0001, n.s., not significant. All values are expressed as mean±SEM, and statistics were conducted using 1-way ANOVA with two-stage linear step-up procedure (significance compared with untrained group). *P<0.05, **P<0.01, ***P<0.001, ****P<0.0001, n.s., not significant.
To determine which cells were involved, mice were given training injections and challenged as previously described. Then, 2 h after challenge, the mice were sacrificed, and peritoneal cells were collected by lavage. The cells were fixed and stained for intracellular TNF-α and IL-6 and surface costimulatory markers, CD40, CD86, and MHCII. Lineage markers were included for innate immune cells, including neutrophils, eosinophils, monocytes, macrophages, and dendritic cells. The stained cells were then analyzed via spectral flow cytometry.
The activation of these cells and changes to co-stimulatory molecules were then investigated.
On the technique in general: In flow cytometry, cells or beads pass a laser one at a time.

Experiment [3] deals with bone marrow-derived macrophages (BMDMs). The experiment is described as follows: In vitro trained immunity assay (ELISA, TLR agonist challenge). The settings on record: for IL-6 production following challenge: 100 ng/mL Pam3. The class given is cell-based, mouse.
Description: FIG. 2H is a graph showing TNF-α concentration from BMDMs trained with PBS or hydrocortisone at a concentration of 10 μM followed by challenge with 100 nanograms per milliliter (ng/mL) lipopolysaccharide (LPS) or Pam3 (n=30). […] FIG. 2I is a graph showing TNF-α or interleukin-6 (IL-6) concentration from BMDMs treated with 10 μM hit compounds one hour (hr) prior to 24 hr stimulation with 100 ng/mL Pam3 (n=6). […] All values are expressed as mean±SEM, and statistics were conducted using 1-way ANOVA with Dunnett's multiple comparisons test (significance compared with untrained group). *P<0.05, **P<0.01, ***P<0.001, ****P<0.0001, n.s., not significant.
TNF-α (FIG. 13D) and IL-6 (FIG. 13E) were measured from BMDM cell culture supernatant 24 h following treatment with small molecules or β-glucan.
In vitro trained immunity assay: Mature BMDMs were plated at 10^5 cells per well in 200 L media in 96-well flat-bottomed plates and rested overnight at 37° C. and 5% CO2. The following day, training molecules were added at specified concentrations and incubated for 24 hours. After training, cells were washed with warm PBS and rested for 3 days in fresh media. On day 5, cells received fresh media containing 25 ng/mL IFN-7 (BD Biosciences) for 24 hours. On day 6, cells were stimulated with 100 ng/mL Pam3CSK4 (Invivogen). Cell supernatant was collected 24 hours after stimulation. Supernatants were measured for IL-6 and TNF-α concentrations using ELISA MAX Deluxe kits (BioLegend) according to manufacturer's instructions.
To select an optimal concentration and agonist pairing, a series of ELISAs were performed to validate the training effects.
Setting [4] is: glycolysis inhibitor 2-deoxy-D-glucose 1 mM.
[5] abbreviates: peritoneal lavage, 2 h after challenge.

`C[C@]12C=CC(=O)C=C1CC[C@H]1[C@@H]3C[C@@H](O)[C@](O)(C(=O)CO)[C@@]3(C)C[C@H](O)[C@@]12F` [Triamcinolone]: in experiment [1], the fold induction at 1 µM was determined as 1.76.

`COc1ccc(OC)c(C(O)C(C)N)c1` (centres unmarked) [Methoxamine hydrochloride]: the fold induction at 1 µM in experiment [1] came out at 2.21.

On to `CC1(C)O[C@@H]2C[C@H]3[C@@H]4C[C@H](F)C5=CC(=O)C=C[C@]5(C)[C@H]4[C@@H](O)C[C@]3(C)[C@]2(C(=O)CO)O1` [Flunisolide], for which the “training (TNF-α after Pam3) after 2DG pre-treatment” value (“training … after 2DG pre-treatment” for short) in experiment [2] (setting [4]) is recorded as “significant inhibition of training”. Moreover, the “training (TNF-α after Pam3) after EGCG pre-treatment” value in experiment [2] (histone acetyltransferase inhibitor EGCG 15 μM, 10 μM compound) is given as “slightly reduce training though statistical significance was not achieved”. In experiment [2] (methyltransferase inhibitor MTA 500 μM, 10 μM compound), the “training (TNF-α after Pam3) after MTA pre-treatment” value is reported as “significant inhibition of training”. For the same compound, the “cell count in the peritoneal lavage” value with peritoneal cells (2 h after challenge) is “increased cell count”. Also, in the experiment on peritoneal cells (peritoneal lavage), the “CD86 on eosinophils and small peritoneal macrophages (MFI of CD86+ cells)” value is reported as “increased amount”; the “MFI of MHCII+ SPMs” value is given as “increased”. In addition, the “number of TNF-α+ and IL-6+ eosinophils” value in the experiment with peritoneal cells (setting [5]) was “significant increases”. For the same compound, the fold induction at 1 µM in experiment [1] stood at 2.49.

Take `O=c1c(O)c(-c2cc(O)c(O)c(O)c2)oc2cc(O)cc(O)c12` [Myricetin]: in experiment [3], the “IL-6 production following challenge” value is reported as “increased production of IL-6”. Besides, the “training … after 2DG pre-treatment” value in experiment [2] (setting [4]) is “not susceptible to suppression of training”. In addition, the “cell count in the peritoneal lavage” value with peritoneal cells (2 h after challenge) is listed as “increased cell count”. In the experiment on peritoneal cells (setting [5]), the “number of TNF-α+ and IL-6+ eosinophils” value is recorded as “significant increases”. In experiment [1], the fold induction at 1 µM was 2.19.

Take `O=c1[nH]c(=O)n([C@H]2C[C@H](O)[C@@H](CO)O2)cc1F` [Floxuridine]: in experiment [1], the fold induction at 1 µM was 1.6.

Turning to `CC(=O)N[C@@H](CC(=O)O)C(=O)O` [N-Acetylaspartic acid], the fold induction at 1 µM in experiment [1] amounted to 1.6.

In the case of `CC(=O)OCC(=O)[C@@]1(O)[C@H](OC(C)=O)C[C@H]2[C@@H]3CCC4=CC(=O)C=C[C@]4(C)[C@@]3(F)[C@@H](O)C[C@@]21C` [Triamcinolone diacetate], the fold induction at 1 µM in experiment [1] came to 1.73.

Take `Oc1ccc(Cl)cc1Cc1cc(Cl)ccc1O` [Dichlorophene]: the fold induction at 1 µM in experiment [1] came out at 1.61.

For `Cc1cc(CC(=O)O)n(C)c1C(=O)c1ccc(Cl)cc1` [Zomepirac Sodium], the fold induction at 1 µM in experiment [1] is 1.7.

Turning to `CCC(C)(C)C(=O)O[C@H]1C[C@@H](C)C=C2C=C[C@H](C)[C@H](CC[C@@H]3C[C@@H](O)CC(=O)O3)[C@H]21` [Simvastatin], the fold induction at 1 µM in experiment [1] was determined as 1.61.

For the compound `CC(C)=CCC/C(C)=C\CO` [Nerol], the “training … after 2DG pre-treatment” value in experiment [2] (setting [4]) is “not susceptible to suppression of training”. The fold induction at 1 µM in experiment [1] was determined as 1.73.

Take `O=C(O)c1cc2cc(F)ccc2[nH]1` [5-Fluoroindole-2-carboxylic acid]: the “training … after 2DG pre-treatment” value in experiment [2] is “not susceptible to suppression of training”. Further, the fold induction at 1 µM in experiment [1] turned out to be 2.47.

For `CC1(C)C(C(Cl)Cl)C2(Cl)C(Cl)C(Cl)C1(Cl)C2(Cl)Cl` (centres unmarked) [Toxaphene], the fold induction at 1 µM in experiment [1] stood at 1.63.

Consider `C[C@]12CCC(=O)C=C1CC[C@@H]1[C@@H]2[C@@H](O)C[C@@]2(C)[C@H]1CC[C@]2(O)C(=O)CO` [Hydrocortisone], for which the “IL-6 production following challenge” value in experiment [3] is given as “increased production of IL-6”. Also, in experiment [3] (10 μM, challenge 100 ng/mL LPS or Pam3, n=30), the “TNF-α training effect with TLR4 and TLR1/2 agonists” value is “Training effects were observed”. In experiment [2] (setting [4]), the “training … after 2DG pre-treatment” value is “significant inhibition of training”. Besides, in experiment [1], the fold induction at 1 µM came out at 1.78.

As for `NC(CO)C(=O)NNCc1ccc(O)c(O)c1O` (centres unmarked) [Benserazide hydrochloride], the fold induction at 1 µM in experiment [1] was determined as 1.61.

Consider `CCC(=O)O[C@]1(C(=O)CCl)[C@@H](C)C[C@H]2[C@@H]3CCC4=CC(=O)C=C[C@]4(C)[C@@]3(F)[C@@H](O)C[C@@]21C` [Clobetasol propionate], for which the fold induction at 1 µM in experiment [1] was 2.07.

As to `CC1(C)O[C@@H]2C[C@H]3[C@@H]4CCC5=CC(=O)CC[C@]5(C)[C@@]4(F)[C@@H](O)C[C@]3(C)[C@]2(C(=O)CCl)O1` [Halcinonide], the fold induction at 1 µM in experiment [1] was 2.7.

Regarding `Cc1cc2cc3c(C)cc(=O)oc3c(C)c2o1` [Trioxsalen], in experiment [1], the fold induction at 1 µM stood at 1.66.

In the case of `N#Cc1c(Cl)c(Cl)c(Cl)c(C#N)c1Cl` [Tetrachloroisophthalonitrile], the fold induction at 1 µM in experiment [1] came out at 1.61.

In the case of `CC(=O)OCC(=O)[C@@]1(O)CC[C@H]2[C@@H]3CCC4=CC(=O)CC[C@]4(C)[C@H]3[C@@H](O)C[C@@]21C` [Hydrocortisone acetate], in experiment [1], the fold induction at 1 µM was 1.68.

In the case of `CC(Cc1ccc(O)cc1)NCC(O)c1cc(O)cc(O)c1` (centres unmarked) [Fenoterol hydrobromide], in experiment [2] (setting [4]), the “training … after 2DG pre-treatment” value is “not susceptible to suppression of training”. Also, the fold induction at 1 µM in experiment [1] amounted to 1.62.

Turning to `NC(=O)N/N=C/c1ccc([N+](=O)[O-])o1` [Nitrofurazone], the fold induction at 1 µM in experiment [1] was determined as 1.69.

`C[C@]12C=CC(=O)C=C1CC[C@@H]1[C@@H]2[C@@H](O)C[C@@]2(C)[C@H]1CC[C@]2(O)C(=O)CO` [Prednisolone]: the fold induction at 1 µM in experiment [1] is 2.06.

Regarding `CCCC1O[C@@H]2C[C@H]3[C@@H]4CCC5=CC(=O)C=C[C@]5(C)[C@H]4[C@@H](O)C[C@]3(C)[C@]2(C(=O)CO)O1` (some centres unmarked) [Budesonide], in experiment [1], the fold induction at 1 µM is 2.69.

Turning to `C=C1CCC2C(CC2(C)C)C(=O)CCC1O` (centres unmarked) [Isokobusone], the fold induction at 1 µM in experiment [1] turned out to be 1.66.

For `Oc1ccc(O)cc1` [Hydroquinone], in experiment [2] (setting [4]), the “training … after 2DG pre-treatment” value is reported as “not susceptible to suppression of training”. In the experiment on peritoneal cells (setting [5]), the “cytokine MFIs among TNF-α+ neutrophils and IL-6+ eosinophils” value is “significant increases”; the “number of TNF-α+ and IL-6+ cells” value is reported as “no increase”. The fold induction at 1 µM in experiment [1] is 1.68.

Consider `CC(=O)OCC(=O)[C@@]12OC(C)(C)O[C@@H]1C[C@H]1[C@@H]3C[C@H](F)C4=CC(=O)C=C[C@]4(C)[C@@]3(F)[C@@H](O)C[C@@]12C` [Fluocinonide], for which, in experiment [1], the fold induction at 1 µM is 2.29.

In the case of `CN1CCCN=C1COC(=O)C(O)(c1ccccc1)C1CCCCC1` (centres unmarked) [Oxyphencyclimine hydrochloride], in experiment [1], the fold induction at 1 µM is 1.67.

For the compound `CC1(C)O[C@@H]2C[C@H]3[C@@H]4C[C@H](F)C5=CC(=O)C=C[C@]5(C)[C@@]4(F)[C@@H](O)C[C@]3(C)[C@]2(C(=O)CO)O1` [Fluocinolone acetonide], the fold induction at 1 µM in experiment [1] was determined as 2.28.

Take `CC(C)[C@H]1CC[C@H](C(=O)N[C@H](Cc2ccccc2)C(=O)O)CC1` [Nateglinide]: in experiment [1], the fold induction at 1 µM worked out at 1.6.
